Here are results for three molecules from publication PMC6385087, “New Multitarget Hybrids Bearing Tacrine and Phenylbenzothiazole Motifs as Potential Drug Candidates for Alzheimer’s Disease” (Molecules, 2019).

One data set addresses T1, AChE from electric eel (Electrophorus electricus, UniProt O42275).
T1 construct: commercially available enzyme AChE 500 U (extracted from electrophorus electricus); purchased type VI-S; host or cells: extracted from electric eel
As to the kind of experiment: biochemical. The settings on record: means of two experiments, read-out: Inhibition of AChE (IC50). How it is done: The analytical grade reagents were purchased from Sigma-Aldrich (St. Louis, MO, USA) and Acros (Thermo Fisher Scientific, Geel, Belgium) and were used without any further purification. The organic solvents were dried and distilled according to standard methods described in literature. […] The Proton and Carbon-13 NMR were recorded either on Bruker AVANCE III-300 (300 MHz and 75.5 MHz) or Bruker AVANCE III-400 (400 MHz and 100.5 MHz) NMR spectrometers (Billerica, MA, USA) at 25 °C using peaks of solvents as internal standard. The chemical shift values of protons or carbons were measured on a δ scale and the coupling constant values (J) were determined in Hertz. In the NMR representation, abbreviations are mentioned as: singlet represented by s, doublet represented by d, triplet represented by t, multiplet represented by m, double doublet represented by dd, and broad singlet represented by brs. The Leica Galen III hot stage apparatus (Leica Microsystems, Wetzlar, Germany) was used for measuring the melting points of compounds. […] The AChE inhibitory activity was measured in a 1 cm path length quartz cell through a Perkin Elmer Lambda 35 spectrophotometer equipped with a temperature programmer PTP1+1 Peltier System (T = 25.0 ± 0.1 °C) (Waltham, MA, USA). Electrospray ionization-mass (ESI-MS) measurements were carried out on a LCQ Fleet mass spectrometer (Thermo Scientific, S. Jose, CA, USA) operated in the ESI positive and negative ion modes.
Modified Ellman’s method was used as described previously for the determination of AChE activity. The AChE stock solution was prepared by dissolving commercially available enzyme AChE 500 U (extracted from electrophorus electricus) in 10 mL of TRIS buffer (50 mM, pH 8). HEPES buffer was used for the dilution of the enzyme to give the final AChE concentration. The assay solution consisted of 374 μL of 4-(2-hydroxyethyl)-1-piperazineethanesulfonic acid (Hepes) buffer (50 mM, pH 8.0), 476 μL of 3 mM bis(3-carboxy-4-nitrophenyl)disulfide (DTNB), 25 μL of AChE (type VI-S, from electric eel) stock solution, a variable volume (10–50 μL) of the compound’s stock solution (1 mg/mL of MeOH), and the necessary amount of methanol to attain the same volume of sample mixture (0.925 mL) in a 1 mL cuvette. Samples were left to react for 15 min and then the reaction was monitored at wavelength of 405 nm for 5 min, after adding 75 μL of 16 mM acetylthiocholine iodide (AChI) solution. Assays were run with a blank containing all the components except AChE, which was replaced by HEPES buffer. The velocities of the reaction were calculated as well as the enzyme activity. A control reaction was carried out using the sample solvent (methanol) in the absence of any tested compound, and it was considered as 100% activity. […] The inhibition curves were obtained by plotting the percentage of enzymatic inhibition versus inhibitor concentration and a calibration curve was obtained from which the linear regression parameters were calculated.

For another data set, the system named is SH-SY5Y cells. The data set is described as follows: Dose-response screening for non-toxic concentration, MTT reduction. It counts as cell-based. To be noted: dose-response screening from 0.2 μM to 5 μM, 25 h. The protocol: The neuroprotective effect of TAC-PhBTA conjugates was evaluated using SH-SY5Y cells treated with Aβ1–42 peptides or ascorbate/iron. For each compound, a dose-response curve was performed to select a non-toxic concentration in order to analyze its neuroprotective effect (Figure 3).
SH-SY5Y human neuroblastoma cell line (ATCC-CRL-2266) grown in Dulbecco’s modified Eagle’s medium (DMEM) obtained from Gibco-Invitrogen (Life Technologies Ltd., Liverpool, UK) with 10% heat inactivated fetal calf serum, containing 50 U/mL penicillin, and 50 μg/mL streptomycin, under a humidified atmosphere of 95% air-5% CO2 at 37 °C. Cells were plated at 0.12 × 10^6 cells/mL for cell viability assay. […]. As a result we selected a 2.5 μM final concentration for compound 16; 0.5 μM final concentration for compound 17; 0.2 μM final concentration for compounds 14 and 15; and a 1 μM final concentration for compounds 19 and 18. […] The compounds were added to the cell media 1 h before the incubation with Aβ1–42 or ferrous sulfate/L-ascorbic acid. Aβ1–42 or ferrous sulfate/L-ascorbic acid where incubated alone or with the compound for an additional 24 h. Aβ1–42 was prepared as 276.9 μM stock in sterile water and added to the medium at 1 μM final concentration. Ferrous sulfate was freshly prepared as 0.36 M stock in water and added to the medium at 500 μM final concentration. L-Ascorbic Acid was freshly prepared as 80 mM stock in water and added to the medium at 5 mM final concentration. Aβ1–42 was purchased from Bachem (Torrance, CA, USA) and ferrous sulfate and L-ascorbic acid from Sigma Chemical Co (St. Louis, MO, USA).
Cell viability was determined by a MTT (3-(4,5-dimethylthiazol-2-yl)-2,5-diphenyltetrazolium bromide) reduction test. In viable cells, the enzyme succinate dehydrogenase metabolizes MTT into formazan that absorbs light at 570 nm. Following the cell treatment protocol the medium was aspirated and 0.5 mL MTT (0.5 mg/mL) was added to each well. The plate was then incubated at 37 °C for 1 h 30 min protected from light. At the end of the incubation period the formazan precipitates were solubilized with 0.5 mL of acidic isopropanol (0.04 M HCl/isopropanol). The absorbance was measured at 570 nm. Cell reduction ability was expressed as a percentage of untreated control cells.

T1 sequence (O42275 24-633): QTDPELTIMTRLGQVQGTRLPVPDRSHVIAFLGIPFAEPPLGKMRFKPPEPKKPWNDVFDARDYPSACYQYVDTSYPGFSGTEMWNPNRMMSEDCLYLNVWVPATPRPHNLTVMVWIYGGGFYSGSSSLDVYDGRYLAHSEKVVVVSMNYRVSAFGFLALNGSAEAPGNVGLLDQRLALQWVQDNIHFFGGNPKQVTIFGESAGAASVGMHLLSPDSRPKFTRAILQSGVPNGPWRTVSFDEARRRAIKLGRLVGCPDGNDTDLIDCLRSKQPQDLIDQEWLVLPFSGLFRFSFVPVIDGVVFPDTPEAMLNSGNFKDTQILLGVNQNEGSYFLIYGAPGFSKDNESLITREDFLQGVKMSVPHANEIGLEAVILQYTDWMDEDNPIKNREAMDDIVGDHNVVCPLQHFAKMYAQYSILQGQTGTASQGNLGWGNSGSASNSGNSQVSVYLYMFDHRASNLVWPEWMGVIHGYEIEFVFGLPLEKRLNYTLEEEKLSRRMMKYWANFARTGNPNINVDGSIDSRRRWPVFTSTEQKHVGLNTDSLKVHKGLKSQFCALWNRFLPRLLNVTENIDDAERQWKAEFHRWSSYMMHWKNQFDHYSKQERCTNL

In general, IC50 refers to the concentration that gives 50% inhibition. With `COc1cc(-c2nc3ccccc3s2)ccc1OCC(=O)NCCNc1c2c(nc3cc(Cl)ccc13)CCCC2` [compound 15, 2-(4-(Benzo[d]thiazol-2-yl)-2-methoxyphenoxy)-N-(2-((6-chloro-1,2,3,4 tetrahydroacridin-9-yl)amino)ethyl)acetamide], the IC50 at AChE from electric eel amounted to 60 nM. The “Highest non-toxic concentration selected” value with SH-SY5Y cells is 0.2 µM.
Turning to `COc1cc(-c2nc3ccccc3s2)ccc1OCC(=O)NCC(O)CNc1c2c(nc3cc(Cl)ccc13)CCCC2` (stereo not drawn) [compound 19, 2-(4-(Benzo[d]thiazol-2-yl)-2-methoxyphenoxy)-N-(3-((6-chloro-1,2,3,4-tetrahydroacridin-9-yl)amino)-2-hydroxypropyl)acetamide], the IC50 at AChE from electric eel came to 140 nM. In addition, in the data set on SH-SY5Y cells, the “Highest non-toxic concentration selected” value worked out at 1 µM.
Consider `COc1cc(-c2nc3ccccc3s2)ccc1OCC(=O)NCCCNc1c2c(nc3ccccc13)CCCC2` [compound 16, 2-(4-(Benzo[d]thiazol-2-yl)-2-methoxyphenoxy)-N-(3-((1,2,3,4-tetrahydroacridin-9-yl)amino)propyl)acetamide], for which the half-inhibitory concentration (IC50) at AChE from electric eel came out at 150 nM. Further, in the data set on SH-SY5Y cells, the “Highest non-toxic concentration selected” value amounted to 2.5 µM.
